Common to all, as to assay type: in vivo
Assay [1] has as its system Trichachne insularis (Digitaria insularis). The experiment in a line: Example 2: visual control of Trichachne insularis (Digitaria insularis), post emergence (Table 16). Conditions: visual control 0-100%, dose per numbered treatment. How it is done: (§1) The study was carried out in Brazil.
(§2) All treatments were applied in established weeds, post emergence, before weeds flowering. The treatments were applied using backpressure equipment (nozzles TEEJET8002) with a water consumption of 150 liters per hectare, 1.2 BAR.
(§3) 14, 21, 28, 35 and 42 days after application (“DAA”) evaluations were carried out, i.e. measuring the control of Trichachne insularis (Digitaria insularis) and its regrowth. The assessment consisted in a visual control level of weeds in which 0% related to absence of control and 100% to total control of weeds. The regrowth were assessed by comparing the emergence of new tillers in treatments versus the emergence of new tillers in check (non-treated control).
(§4) An analysis was carried out for viability rates applied through a variance analysis and a mean comparison test of Student—Newman-Keuls ([…]) with the ARM® statistical analysis package.

Assay [2] shares this test system. The experiment in a line: Example 2: regrowth of D. insularis, emergence of new tillers versus non-treated check (Table 17). The settings on record: post emergence; for regrowth of D. insularis 35 DAA: 35 days after application; for regrowth of D. insularis 42 DAA: 42 days after application. The arrangement: scale not given here. How it is done: as §1, §2, §3, §4

Another assay has as its system Conyza bonariensis. The assay is described as follows: Example 3: control of Conyza bonariensis, viable weeds versus control plot, synergy by Colby. Details: key: % control, viable weeds vs. untreated control plot. Conditions: weeds 20 cm height at application.
From the text: Synergism can be described as an interaction where the combined effect of two or more compounds is greater than the sum of the individual effects of each of the compounds. The presence of a synergistic effect in terms of percent control, between two mixing partners (X and Y) can be calculated using the Colby equation (Colby, S. R., 1967, Calculating Synergistic and Antagonistic Responses in Herbicide Combinations, Weeds, 15, 21-22):
When the observed combined control effect is greater than the expected (calculated) combined control effect (E), then the combined effect is synergistic. The synergistic effect may also be present when the observed combined control effect is equal to the expected (calculates) combined control effect, especially when control values over 90 are calculated.
Analogously, the Colby's equation can be used to determine synergism of 3-way and higher mixtures:
as §1
The applications carried out by a back pressure sprayer with T-jet nozzles (XR-110.02) covering 200 liters per hectare. At the time of application, Conyza bonariensis weeds were 20 cm height. The results assessed by the comparison between viable weeds at the control plot and the viable weeds at the treatments plots. To the experiment, the plot consist of a 20 m2 area (5 meters length and 4 meters width).
The synergy was calculated by Colby formula and it expansion for three-way mixtures

With `CCSC(C)CC1CC(=O)C(/C(CC)=N/OC/C=C/Cl)=C(O)C1` (racemic) [Clethodim, (RS)-2-[(E)-1-[(E)-3-chloroallyloxyimino]propyl]-5-[2-(ethylthio)propyl]-3-hydroxycyclohex-2-en-1-one], in assay [1], the “% of control, 28 DAA, Proved” value is given as 62.5%; the “% of control, 35 DAA, Proved” value is listed as 60%; the “% of control, 42 DAA, Proved” value is 52.5%. Further, in assay [2], the “regrowth of D. insularis 35 DAA” value was found to be 28 and the “regrowth of D. insularis 42 DAA” value was determined as 33.75.

As to `O=C(O)CNCP(=O)(O)O` [Glyphosate, N-(phosphonomethyl)glycine], in assay [1], the “% of control, 28 DAA, Proved” value came out at 8.75%; the “% of control, 35 DAA, Proved” value came out at 6.25%; the “% of control, 42 DAA, Proved” value was 3.75%. Besides, in the assay with Conyza bonariensis (listed as 1 Glyphosate), the “Control of Conyza bonariensis 7 DAA Field Results” value worked out at 32.50 and the “Control of Conyza bonariensis 15 DAA Field Results” value is listed as 65.00. Moreover, in the assay on Conyza bonariensis (listed as 3 Glyphosate), the “Control of Conyza bonariensis 7 DAA Field Results” value was found to be 15.00 and the “Control of Conyza bonariensis 15 DAA Field Results” value is reported as 27.50. Moreover, in assay [2], the “regrowth of D. insularis 35 DAA” value came out at 61.25 and the “regrowth of D. insularis 42 DAA” value is reported as 67.5.

Consider `CC(C)N(C)S(=O)(=O)NC(=O)c1cc(-n2c(=O)cc(C(F)(F)F)n(C)c2=O)c(F)cc1Cl` [Saflufenacil, N′-{2-chloro-4-fluoro-5-[1,2,3,6-tetrahydro-3-methyl-2,6-dioxo-4-(trifluoromethyl)pyrimidin-1-yl]benzoyl}-N-isopropyl-N-methylsulfannide], for which, in assay [1] (listed as 05. Saflufenacil), the “% of control, 28 DAA, Proved” value came to 5% and the “% of control, 35 DAA, Proved” value amounted to 5%. Besides, in assay [1] (listed as 06. Saflufenacil), the “% of control, 28 DAA, Proved” value is 6.25% and the “% of control, 35 DAA, Proved” value is listed as 6.25%. In addition, in assay [1], the “% of control, 42 DAA, Proved” value stood at 2.5%. In addition, in the assay on Conyza bonariensis (listed as 4 Saflufenacil), the “Control of Conyza bonariensis 7 DAA Field Results” value is given as 60.00 and the “Control of Conyza bonariensis 15 DAA Field Results” value stood at 56.25. Besides, in the assay with Conyza bonariensis (listed as 5 Saflufenacil), the “Control of Conyza bonariensis 7 DAA Field Results” value was determined as 86.25 and the “Control of Conyza bonariensis 15 DAA Field Results” value was found to be 73.75. In assay [2] (listed as 05. Saflufenacil), the “regrowth of D. insularis 35 DAA” value is given as 63.75 and the “regrowth of D. insularis 42 DAA” value came to 72.5. In assay [2] (listed as 06. Saflufenacil), the “regrowth of D. insularis 35 DAA” value was found to be 66.5 and the “regrowth of D. insularis 42 DAA” value came out at 78.75.
